Laboratory results from patent EP0664802B1, “N-ARYLHETEROARYLALKYL 1-PHENYL-IMIDAZOL-2-ONE COMPOUNDS FOR TREATMENT OF CIRCULATORY DISORDERS” (G.D. SEARLE & CO., priority 1992, dated 1994).
Several values for one entry are separate records, joined by “and”; a condition that tells them apart may be missing. Identical values can stand only once.

Key:
pressor response to AII = experiment: Assay C: In Vivo Intragastric Pressor Assay Response for AII antagonists; parameters: species or system Sprague-Dawley rats; settings: Dose: 3 mg/kg (i.g.); for Assay C Duration: AII challenges up to 180 minutes after gavage; for Assay C Inhibition (%): inhibition of pressor response to 30 ng/kg AII bolus, conscious rats
Experimental: Assay C: In Vivo Intragastric Pressor Assay Response for All Antagonists
Male Sprague-Dawley rats weighing 225-300 grams were anesthetized with methohexital (30 mg/kg, i.p.) and catheters were implanted into the femoral artery and vein. The catheters were tunneled subcutaneously to exit dorsally, posterior to the head and between the scapulae. The catheters were filled with heparin (1000 units/ml of saline). The rats were returned to their cage and allowed regular rat chow and water ad libitum. After full recovery from surgery (3-4 days), rats were placed in Lucite holders and the arterial line was connected to a pressure transducer. Arterial pressure was recorded on a Gould polygraph (mmHg). Angiotensin II was administered as a 30 ng/kg bolus via the venous catheter delivered in a 50 µl volume with a 0.2 ml saline flush. The pressor response in mm Hg was measured by the difference from pre-injection arterial pressure to the maximum pressure achieved. The AII injection was repeated every 10 minutes until three consecutive injections yielded responses within 4 mmHg of each other. These three responses were then averaged and represented the control response to AII. The test compound was suspended in 0.5% methylcellulose in water and was administered by gavage. The volume administered was 2 ml/kg body weight. The standard dose was 3 mg/kg. Angiotensin II bolus injections were given at 30, 45, 60, 75, 120, 150, and 180 minutes after gavage. The pressor response to AII was measured at each time point. The rats were then returned to their cage for future testing. A minimum of 3 days was allowed between tests. Percent inhibition was calculated for each time point following gavage by the following formula: [(Control Response - Response at time point)/Control Response] X 100 [formula] .

rabbit aortic rings = experiment: Assay B: In Vitro Vascular Smooth Muscle Response for AII (antagonist activity, isometric force); format: cell-based; settings: antagonist at 10^-5 M, 5 min before AII challenge; Schild; aorta rings from two rabbits (two values per cell)
Experimental: Assay B: In Vitro Vascular Smooth Muscle-Response for AII
The compounds of the invention were tested for antagonist activity in rabbit aortic rings. Male New Zealand white rabbits (2-2.5 kg) were sacrificed using an overdose of pentobarbital and exsanguinated via the carotid arteries. The thoracic aorta was removed, cleaned of adherent fat and connective tissue and then cut into 3-mm ring segments. The endothelium was removed from the rings by gently sliding a rolled-up piece of filter paper into the vessel lumen. The rings were then mounted in a water-jacketed tissue bath, maintained at 37°C, between moveable and fixed ends of a stainless steel wire with the moveable end attached to an FT03 Grass transducer coupled to a Model 7D Grass Polygraph for recording isometric force responses. The bath was filled with 20 ml of oxygenated (95% oxygen/5% carbon dioxide) Krebs solution of the following composition (mM): 130 NaCl, 15 NaHC03, 15 KCl, 1.2 NaH2P04, 1.2 MgS04, 2.5 CaC12, and 11.4 glucose. The preparations were equilibrated for one hour before approximately one gram of passive tension was placed on the rings. Angiotensin II concentration-response curves were then recorded (3 X 10^-10 to 1 x 10^-5 M). Each concentration of AII was allowed to elicit its maximal contraction, and then AII was washed out repeatedly for 30 minutes before rechallenging with a higher concentration of AII. Aorta rings were exposed to the test antagonist at 10^-5 M for 5 minutes before challenging with AII. Adjacent segments of the same aorta ring were used for all concentration-response curves in the presence or absence of the test antagonist. The effectiveness of the test compound was expressed in terms of pA2 values and were calculated according to H.O. Schild [Br. J. Pharmacol. Chemother., 2,189-206 (1947)]. The pA2 value is […] of the antagonist which increases the EC50 value for AII by a factor of two. Each test antagonist was evaluated in aorta rings from two rabbits.

CCCCc1cn(-c2c(C)cccc2Cl)c(=O)n1Cc1ccc(-c2ccccc2-c2nnn[nH]2)nc1 [Example 4, 1-(2-chloro-6-methylphenyl)-4-butyl-1,3-dihydro-3-[[6-[2-(1H-tetrazol-5-yl)phenyl]-3-pyridinyl]methyl]-2H-imidazol-2-one]
Assay C Duration (pressor response to AII): >180 min
Assay C Inhibition (%) (pressor response to AII): 75%

CCCCc1cn(-c2c(C)cc(C(C)(C)C)cc2C)c(=O)n1Cc1ccc(-c2ccccc2-c2nnn[nH]2)nc1 [Example 6, 1-(2,6-dimethyl-4-tertbutylphenyl)-4-butyl-1,3-dihydro-3-[[6-[2-(1H-tetrazol-5-yl)phenyl]-3-pyridinyl]methyl]-2H-imidazol-2-one]
Assay B pA2 (rabbit aortic rings): 8.51 and 8.78

CCCCc1cn(-c2c(CC)cccc2CC)c(=O)n1Cc1ccc(-c2ccccc2-c2nnn[nH]2)nc1 [Example 7, 1-(2,6-diethylphenyl)-4-butyl-1,3-dihydro-3-[[6-[2-(1H-tetrazol-5-yl)phenyl]-3-pyridinyl]methyl]-2H-imidazol-2-one]
Assay C Inhibition (%) (pressor response to AII): 20%

CCCCc1cn(-c2c(C)cc(C)cc2C)c(=O)n1Cc1ccc(-c2ccccc2-c2nnn[nH]2)nc1 [Example 5, 1-(2,4,6-trimethylphenyl)-4-butyl-1,3-dihydro-3-[[6-[2-(1H-tetrazol-5-yl)phenyl]-3-pyridinyl]methyl]-2H-imidazol-2-one]
Assay B pA2 (rabbit aortic rings): 8.59 and 8.89
Assay C Duration (pressor response to AII): >180 min
Assay C Inhibition (%) (pressor response to AII): 70%

CCCCc1cn(-c2c(OC)cccc2OC)c(=O)n1Cc1ccc(-c2ccccc2-c2nnn[nH]2)nc1 [Example 3, 1-(2,6-dimethoxyphenyl)-4-butyl-1,3-dihydro-3-[[6-[2-(1H-tetrazol-5-yl)phenyl]-3-pyridinyl]methyl]-2H-imidazol-2-one]
Assay C Duration (pressor response to AII): >180 min
Assay C Inhibition (%) (pressor response to AII): 25%

CCCCc1cn(-c2c(C(C)C)cccc2C(C)C)c(=O)n1Cc1ccc(-c2ccccc2-c2nnn[nH]2)nc1 [Example 8, 1-(2,6-diisopropylphenyl)-4-butyl-1,3-dihydro-3-[[6-[2-(1H-tetrazol-5-yl)phenyl]-3-pyridinyl]methyl]-2H-imidazol-2-one]
Assay B pA2 (rabbit aortic rings): 7.14 and 7.07

CCCCc1cn(-c2ccccc2CC)c(=O)n1Cc1ccc(-c2ccccc2-c2nnn[nH]2)nc1 [Example 1, 1-(2-ethylphenyl)-4-butyl-1,3-dihydro-3-[[6-[2-(1H-tetrazol-5-yl)phenyl]-3-pyridinyl]methyl]-2H-imidazol-2-one]
Assay C Duration (pressor response to AII): >180 min
Assay C Inhibition (%) (pressor response to AII): 80%

CCCCc1cn(-c2ccccc2C(C)(C)C)c(=O)n1Cc1ccc(-c2ccccc2-c2nnn[nH]2)nc1 [Example 2, 1-(2-tertbutylphenyl)-4-butyl-1,3-dihydro-3-[[6-[2-(1H-tetrazol-5-yl)phenyl]-3-pyridinyl]methyl]-2H-imidazol-2-one]
Assay C Duration (pressor response to AII): >180 min
Assay C Inhibition (%) (pressor response to AII): 40%
